The source of these data is patent publication US12065435B2, “Compounds for the treatment of glycogen storage disorders” (HADASIT MEDICAL RESEARCH SERVICES AND DEVELOPMENT LTD., priority 2017, dated 2024).

In series [1] the test system is polyglucosan body (PB) in APBD patient-derived fibroblasts. In words: High content (image-based) PAS screening assay for polyglucosan bodies. It is filed as cell-based, human. Particulars: 0, 1, 5, 10 and 50 μM.
In another series the test system is APBD skin fibroblasts. In words: Multi-parametric cell-phenotypic characterization of APBD skin fibroblasts. Conditions: APBD fibroblasts treated with compound. Type of series: cell-based, human. The text has this: FIG. 10 presents a graph showing multi-parametric cell-phenotypic characterization of healthy control (HC) and APBD skin fibroblasts. Upper panel: the extent of deviation from healthy control of the cell features shown, ordered by the amount of deviation (-log (P value)). […] The different comparisons analyzed are shown at the bottom of the panel.
Next, the multi-parametric analysis of compound A, one of the compounds tested in the Gbe^Y329S/Y329S mouse model for APBD was completed. The different cell features in APBD fibroblasts of several patients were ordered according to the extent of their deviation from the same features in healthy fibroblasts.

Series [2] deals with APBD modeling mice (Gbe^Y329S/Y329S mouse model). In words: Motor parameters in APBD modeling mice. It is filed as in vivo. Conditions: for ameliorating effect on motor parameters (summary): tested every two weeks. As for the experimental part: This study was conducted in compounds A and B according to the schemes described in Tables 8 and 9, respectively.
As vehicle control, 0.1% DMSO was used. It is noteworthy that, in order to have a statistically significant number of animals, compound A was tested in male mice and compound B in female mice (no mixed cages were allowed).
APBD is an autosomal disease with no gender related symptoms and it was presumed that this experimental design is optimal. The mode of delivery of the compounds was intravenous (IV) injection for the first month, followed by subcutaneous injection due to lack of injection space and scaring in animal tails.
Tables 8 and 9 describe the study design for compounds A and B. both compounds were tested at the age of 4 months, two months prior to disease onset, in order to assess possible prophylactic effects, and at the age of 6 months, at disease onset, in order to assess corrective effects.
The effect of compounds A and B on various motor parameters was tested every two weeks. The results are shown in herein.
The point of reference is one time point prior to treatment initiation. Please note, since animals first treated with the compounds at 6 months of age were not injected at all before that age, they could not have been compared to animals pre-injected with vehicle. Therefore, the duration of the longitudinal studies for the cohorts first treated at the age of 6 months is shorter than that of the animals first treated at 4 months of age.

The subject of a further series is APBD mice. Conditions: mouse, in vivo.
[3] abbreviates: treated from 4 months of age (2 months before onset), two way ANOVA with repeated measures.
The mark [4] stands for this setting: treated from 4 months of age, Bonferroni's multiple comparisons test.
Setting [5] is: treated from 6 months of age (at onset), two way ANOVA with repeated measures.
Setting [6] is: treated from 6 months of age, Bonferroni's multiple comparisons test.

As for `COCCN(Cc1sccc1C)C(=O)c1cc(C)[nH]c(=O)c1` [UDP #4, N-(2-methoxyethyl)-6-methyl-N-[(3-methyl-2-thienyl)methyl]-2-oxo-1,2-dihydropyridine-4-carboxamide], the “dose response of diastase resistant cell associated mean PAS intensity normalized by z-score” value in series [1] is “lowered mean normalized PAS intensity in a non-dose responding manner”. Besides, in the series on APBD skin fibroblasts, the “area of respiring (TMRE labeled) mitochondria” value was “decreased” and the nuclear intensity result is reported as “increased”. In series [2] (250 mg/kg, IV first month then subcutaneous), the “apathy, mobility and responsiveness to experimenter” value is “less apathic, more mobile and more responsive to intervention by the experimenter”. For the same molecule, the “ameliorating effect on motor parameters (summary)” value in series [2] (250 mg/kg, IV first month then subcutaneous, listed as Compound A) is “ameliorate extension reflex, grip strength and gait”. In addition, the “ameliorating effect on motor parameters (summary)” value in series [2] (250 mg/kg, IV first month then subcutaneous, listed as compound A) was “improves the uniformity of step alteration”. Also, in series [2] (setting [3]), the “average duration in movement in an open field test vs vehicle” value (from here on “average duration in movement … vs vehicle”) is reported as “not different from vehicle (p<0.1)”, the “average front paw grip strength vs vehicle” value is “not different from vehicle (p<0.1)”, the “average gait length vs vehicle” value is on record as “not different from vehicle (p<0.1)” and the “average gait width vs vehicle” value was “not different from vehicle (p<0.1)”. In addition, in series [2] (setting [3]), the “average latency to fall off a metal wire vs vehicle” value is listed as “not different from vehicle (p<0.1)”; the “average latency to fall off a rotating cylinder (rotarod) vs vehicle” value (“average latency … (rotarod) vs vehicle” for short) is recorded as “not different from vehicle (p<0.1)”; the “average regularity of step distance (Coefficient of Variance of all R-R and L-L step distances) vs vehicle” value is given as “significantly different from vehicle (p<0.01)”; the “average uniformity of step alternation (|0.5-(R-L/R-R)|) vs vehicle” value is recorded as “not different from vehicle (p<0.1)”. Moreover, the “extension reflex vs vehicle” value in series [2] (setting [3]) is on record as “different from vehicle with p<0.09”. In series [2] (setting [4]), the “average duration in movement … vs vehicle” value is “no significant difference”; the “average front paw grip strength vs vehicle” value was “a significant difference (p<0.05) between vehicle and treatment at 32 days after initiation of treatment”; the “average gait length vs vehicle” value is reported as “no significant difference”; the “average gait width vs vehicle” value was “no significant difference”. In addition, in series [2] (setting [4]), the “average latency to fall off a metal wire vs vehicle” value is given as “no significant difference”; the “average latency … (rotarod) vs vehicle” value is given as “no significant difference”; the “average regularity of step distance vs vehicle” value is “a significant difference (p<0.05) between vehicle and treatment at 81 days after treatments initiation”; the “average uniformity of step alternation vs vehicle” value was “a significant difference (p<0.05) between vehicle and treatment 95 days after treatment initiation”. Besides, the “extension reflex vs vehicle” value in series [2] (setting [4]) was “no significant difference”. In series [2] (setting [5]), the “average duration in movement … vs vehicle” value is “not different from vehicle (p<0.1)”, the “average front paw grip strength vs vehicle” value is “different from vehicle with p<0.055”, the “average gait length vs vehicle” value was “not different from vehicle (p<0.1)” and the “average gait width vs vehicle” value is listed as “not different from vehicle (p<0.1)”. In addition, in series [2] (setting [5]), the “average latency to fall off a metal wire vs vehicle” value is “not different from vehicle (p<0.1)”, the “average latency … (rotarod) vs vehicle” value is “not different from vehicle (p<0.1)”, the “average regularity of step distance vs vehicle” value is on record as “not different from vehicle (p<0.1)” and the “average uniformity of step alternation (|0.5-(R-L/R-R)|) vs vehicle” value is on record as “significantly different from vehicle (p<0.06)”. Besides, the “extension reflex vs vehicle” value in series [2] (setting [5]) is given as “not different from vehicle (p<0.1)”. Further, in series [2] (setting [6]), the “average duration in movement … vs vehicle” value is recorded as “no significant difference”, the “average front paw grip strength vs vehicle” value is on record as “no significant difference”, the “average gait length vs vehicle” value was “no significant difference” and the “average gait width vs vehicle” value is “no significant difference”. Further, in series [2] (setting [6]), the “average latency to fall off a metal wire vs vehicle” value is listed as “no significant difference”; the “average latency … (rotarod) vs vehicle” value is “no significant difference”; the “average regularity of step distance vs vehicle” value is reported as “no significant difference”; the “average uniformity of step alternation vs vehicle” value is “a significant difference (p<0.05) between vehicle and treatment 95 days after treatment initiation”. The “extension reflex vs vehicle” value in series [2] (setting [6]) is recorded as “no significant difference”.
For `CO[C@H]1C[C@@H]2CC[C@@H](C)[C@@](O)(O2)C(=O)C(=O)N2CCCC[C@H]2C(=O)O[C@H]([C@H](C)C[C@@H]2CC[C@@H](O)[C@H](OC)C2)CC(=O)[C@H](C)/C=C(\C)[C@@H](O)[C@@H](OC)C(=O)[C@H](C)C[C@H](C)/C=C/C=C/C=C/1C` [rapamycin], the “toxic effects in APBD mice” value with APBD mice is “toxic effects”.
